Reference: patent publication US20120009613A1, “PHARMACEUTICAL COMPOSITION FOR MODULATING THE ACTIVITY OF A NOVEL TRIGLYCERIDE HYDROLASE” (Karl-Franzens-Universitat Graz, priority 2004, published 2012)

Assays:
Type in all cases: biochemical
[1] = biological target: T1, ATGL (Mus musculus, UniProt Q8BJ56); assay: TG hydrolase activity assay, cytosolic fractions of HepG2 cells infected with adenovirus coding for His-tagged ATGL, radiolabeled triolein substrate
T1 construct: a recombinant adenovirus encoding the His-tagged full length mouse ATGL cDNA was constructed; expressed in transfected cells; host or cells: HepG2 cells infected with recombinant adenovirus; cytosolic fraction
T1 sequence (Q8BJ56 1-486): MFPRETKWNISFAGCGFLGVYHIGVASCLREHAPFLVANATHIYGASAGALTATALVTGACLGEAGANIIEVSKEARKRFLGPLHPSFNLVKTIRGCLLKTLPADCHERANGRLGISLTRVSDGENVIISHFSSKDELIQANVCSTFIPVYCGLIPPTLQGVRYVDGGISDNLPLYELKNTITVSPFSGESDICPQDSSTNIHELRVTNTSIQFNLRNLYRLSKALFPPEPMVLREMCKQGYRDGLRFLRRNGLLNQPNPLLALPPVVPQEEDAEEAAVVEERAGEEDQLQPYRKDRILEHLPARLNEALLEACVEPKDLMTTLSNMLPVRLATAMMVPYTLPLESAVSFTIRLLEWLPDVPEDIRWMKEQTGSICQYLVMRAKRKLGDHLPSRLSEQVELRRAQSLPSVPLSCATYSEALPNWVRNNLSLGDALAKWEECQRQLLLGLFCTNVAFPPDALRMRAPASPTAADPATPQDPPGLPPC
Description: (§1) Neutral TG lipase activity was measured with triolein as substrate containing [9,10-3H(N)]-triolein (NEN Life Science Products) as radioactive tracer. The substrate for TG lipase activity was prepared by sonication (Virsonic 475) exactly as describeded by Holm et al. (30). Cells were disrupted on ice in lysis buffer (0.25 M sucrose, 1 mM EDTA, 1 mM dithiothreitol, 20 μg/ml leupeptin, 2 μg/ml antipain, 1 μg/ml pepstatin, pH 7) by sonication (Virsonic 475). The cytosolic infranatants were obtained after centrifugation at […], at 4° C. for 60 min. The reaction was performed in a water bath at 37° C. for 60 min with 0.1 ml substrate and 0.1 ml infranatant. The reaction was terminated by adding 3.25 ml of methanol/chloroform/heptane (10:9:7) and 1 ml of 0.1 M potassium carbonate, 0.1 M boric acid, pH 10.5. After centrifugation (800 g, 20 min) the radioactivity in 1 ml of the upper phase was determined by liquid scintillation counting.
A recombinant adenovirus coding for His-tagged ATGL or HSL was used to infect HepG2 cells as described above. For activity assays, the cytosolic fractions of the cells were incubated with a substrate containing radiolabeled triolein in the absence (control) or in the presence of 50 μg/ml orlistat. It can be seen from FIG. 4 that addition of orlistat decreased in ATGL activity by 98%. […]

[2] = biological target: T2, HSL (Mus musculus, UniProt P54310); assay: TG hydrolase activity assay, cytosolic fractions of HepG2 cells infected with adenovirus coding for His-tagged HSL, radiolabeled triolein substrate; details: 1M KCl vs absence (control), FIG. 5
T2 construct: His-tag; expressed in transfected cells; host or cells: HepG2 cells infected with recombinant adenovirus; cytosolic fraction
T2 sequence (P54310 1-759): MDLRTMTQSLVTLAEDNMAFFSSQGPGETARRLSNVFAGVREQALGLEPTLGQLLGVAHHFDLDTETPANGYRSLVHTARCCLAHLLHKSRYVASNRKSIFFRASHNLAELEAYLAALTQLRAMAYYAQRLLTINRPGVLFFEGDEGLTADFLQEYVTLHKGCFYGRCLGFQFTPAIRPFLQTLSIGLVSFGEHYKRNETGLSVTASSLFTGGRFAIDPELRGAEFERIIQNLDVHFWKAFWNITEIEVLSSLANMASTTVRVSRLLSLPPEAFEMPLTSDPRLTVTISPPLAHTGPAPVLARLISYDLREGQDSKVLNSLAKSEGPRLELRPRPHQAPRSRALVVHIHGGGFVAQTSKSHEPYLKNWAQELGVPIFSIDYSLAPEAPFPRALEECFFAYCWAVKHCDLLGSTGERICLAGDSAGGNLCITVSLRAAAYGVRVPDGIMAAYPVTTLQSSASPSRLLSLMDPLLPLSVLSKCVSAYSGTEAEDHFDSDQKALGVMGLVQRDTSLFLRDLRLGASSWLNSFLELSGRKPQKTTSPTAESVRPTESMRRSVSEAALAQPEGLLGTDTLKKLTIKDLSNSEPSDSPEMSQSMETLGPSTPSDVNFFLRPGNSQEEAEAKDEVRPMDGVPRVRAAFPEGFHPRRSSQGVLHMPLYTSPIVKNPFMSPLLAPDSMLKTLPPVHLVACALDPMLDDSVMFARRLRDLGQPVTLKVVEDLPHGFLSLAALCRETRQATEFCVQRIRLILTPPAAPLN
Description: as §1
A recombinant adenovirus coding for His-tagged ATGL or HSL was used to infect HepG2 cells. The infection led to a 7- and 12-fold increase in TG hydrolase activity for HSL and ATGL, respectively, compared to LacZ-infected cells. For activity assays, the cytosolic fractions of the cells were incubated with a substrate containing radiolabeled triolein in the absence (control) or in the presence of the indicated salt concentrations.

[3] = biological target: T3, human ATGL (hATGL) (Homo sapiens, UniProt Q96AD5); assay: TGH activity assay of hATGL with hCGI-58 expressed in COS-7 cells; details: human proteins; dose-dependent; FIG. 6f
T3 construct: The PCR products, containing the complete open reading frame, were ligated; expressed in transfected cells; host or cells: COS-7, transient transfection; cytoplasmic extracts
T3 sequence (Q96AD5 2-504): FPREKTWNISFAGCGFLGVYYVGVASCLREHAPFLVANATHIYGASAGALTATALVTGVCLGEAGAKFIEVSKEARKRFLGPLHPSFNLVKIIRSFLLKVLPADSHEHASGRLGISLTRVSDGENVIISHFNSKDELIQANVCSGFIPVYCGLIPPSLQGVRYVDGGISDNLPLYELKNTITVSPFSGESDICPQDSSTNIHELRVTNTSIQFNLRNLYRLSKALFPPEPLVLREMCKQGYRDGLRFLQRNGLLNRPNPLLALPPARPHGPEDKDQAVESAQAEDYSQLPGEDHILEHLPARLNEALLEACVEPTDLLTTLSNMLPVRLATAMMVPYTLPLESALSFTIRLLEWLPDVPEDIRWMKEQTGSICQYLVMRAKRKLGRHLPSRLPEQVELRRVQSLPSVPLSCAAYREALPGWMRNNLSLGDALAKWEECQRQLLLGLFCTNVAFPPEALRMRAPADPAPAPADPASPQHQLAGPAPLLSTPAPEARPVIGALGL
T3 sequence (Q8WTS1 1-349 partner): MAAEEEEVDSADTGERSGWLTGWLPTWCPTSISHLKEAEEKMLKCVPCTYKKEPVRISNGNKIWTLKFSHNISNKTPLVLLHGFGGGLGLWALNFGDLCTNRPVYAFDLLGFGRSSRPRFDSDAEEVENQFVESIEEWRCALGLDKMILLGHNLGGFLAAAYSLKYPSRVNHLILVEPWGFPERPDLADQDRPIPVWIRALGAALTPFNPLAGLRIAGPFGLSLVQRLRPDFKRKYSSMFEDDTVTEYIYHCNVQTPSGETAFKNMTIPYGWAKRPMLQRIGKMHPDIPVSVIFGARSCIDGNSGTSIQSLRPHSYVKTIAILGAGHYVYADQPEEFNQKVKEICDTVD
Text: In comparison, transfection of cells with ATGL and HSL increased TGH activities 4- and 9-fold, respectively. In order to investigate whether the effect of CGI-58 is due to endogenous TGH activity of CGI-58 or if the protein affects the activity of other lipases, the extracts of CGI-58 and ATGL or HSL-expressing cells were mixed together and subjected to TGH activity determinations (FIG. 6c). […] The activation of ATGL by CGI-58 could also be monitored on the molecular level using the fluorescently labeled lipase-inhibitor NBD-snl TG. By mimicking a TG molecule, this inhibitor covalently binds to active lipases. […]
Expression ofrecombinant proteins in cultured cells for CGI-58 investigations—Monkey embryonic kidney cells (COS-7, ATCC CRL-1651) were maintained in Dulbecco's minimal essential medium (DMEM) (Gibco, Invitrogen life technologies, Carlsbad, Calif.) containing 10% fetal calf serum (FCS) (Sigma-Aldrich Chemie GmbH) and antibiotics at 37° C. in humidified air (89-91% saturation) and 5% C02. […] Cells were analyzed two days after transfection.
FIG. 6. […] (a) His-tagged proteins were detected in cytoplasmic extracts of transfected cells by Western blotting using a monoclonal anti-His antibody. (b) TGH activity of cytoplasmic extracts of transfected cells was determined using a radiolabeled triolein substrate. […] The molar ratio ATGL/CGI-58 was determined as described in (d).

## [Cl-].[K+] [KCl, potassium chloride]
[1]; 1M KCl vs absence (control), FIG. 5
  change in ATGL activity (stimulated): +84%
[2]
  change in HSL activity: −68%

## CCCCCCCCCCC[C@@H](C[C@@H]1OC(=O)[C@H]1CCCCCC)OC(=O)[C@H](CC(C)C)NC=O [orlistat]
[1]; 50 μg/ml orlistat vs absence (control), FIG. 4
  decrease in ATGL activity: 98%

B1: hCGI-58: human CGI-58 expressed in COS-7 cells (protein, UniProt Q8WTS1 2-349, looked up)
1-acylglycerol-3-phosphate …: AAEEEEVDSADTGERSGWLTGWLPTWCPTSISHLKEAEEKMLKCVPCTYKKEPVRISNGNKIWTLKFSHNISNKTPLVLLHGFGGGLGLWALNFGDLCTNRPVYAFDLLGFGRSSRPRFDSDAEEVENQFVESIEEWRCALGLDKMILLGHNLGGFLAAAYSLKYPSRVNHLILVEPWGFPERPDLADQDRPIPVWIRALGAALTPFNPLAGLRIAGPFGLSLVQRLRPDFKRKYSSMFEDDTVTEYIYHCNVQTPSGETAFKNMTIPYGWAKRPMLQRIGKMHPDIPVSVIFGARSCIDGNSGTSIQSLRPHSYVKTIAILGAGHYVYADQPEEFNQKVKEICDTVD
[3]
  magnitude of the maximal effect on ATGL activation: 6 fold
